Measurements: ChEMBL document CHEMBL1144096, “New phenanthrene derivatives from maxillaria densa(1)” (J Nat Prod, 1999)

System: Ileum
Assay: Inhibition of rat ileum contraction
Assay type: functional, tissue-based

SMILES: COc1ccc(Cc2nccc3cc(OC)c(OC)cc23)cc1OC [PAPAVERINE]
- IC50: 1550 nM
